Reference: PubChem BioAssay (NCI)
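96-well plates; 48 h exposure; 5 concentrations. Endpoints by linear interpolation between flanking doses. Not reached: highest tested concentration assigned. At the GI50, growth is halved. Definition used: TGI = concentration required for complete inhibition of growth.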

Legend:
Test in all cases: inhibition of tumour cell growth, NCI panel, 48 h
[1] = system: IGROV1 ovarian
[2] = system: K-562 leukemia
[3] = system: LOX IMVI melanoma
[4] = system: MDA-N
[5] = system: NCI-H226 lung
[6] = system: NCI/ADR-RES ovarian
[7] = system: OVCAR-3 ovarian
[8] = system: SK-MEL-2 melanoma
[9] = system: SK-MEL-5 melanoma
[10] = system: ACHN renal
[11] = system: RPMI-8226 leukemia
[12] = system: SNB-19 CNS
[13] = system: NCI-H522 lung

COc1ccc(C(=O)C2CC3(CCC2(O)c2ccc(OC)cc2)CC(=O)Nc2ccccc2C3=O)cc1 (centres undefined) was tested, and the TGI [1] was greater than 100 µM, the TGI [2] was greater than 100 µM and the TGI [3] was greater than 100 µM. For the same compound, the TGI [4] was greater than 100 µM, the TGI [5] was greater than 100 µM and the TGI [6] was greater than 100 µM. It also gave a TGI [7] greater than 100 µM, a TGI [8] greater than 100 µM and a TGI [9] greater than 100 µM.

ClCCN(CCCl)Cc1ccc(Nc2ccnc3cc(Cl)ccc23)cc1 showed a GI50 [10] of 0.548 µM, a TGI [10] greater than 100 µM and a GI50 [5] of 1.41 µM. The TGI [5] was 3.78 µM, the GI50 [6] was 2.17 µM and the TGI [6] was 7.36 µM. For the same compound, the GI50 [11] was 1.72 µM, the TGI [11] was 5.41 µM and the GI50 [12] was 1.89 µM. For the same compound, the TGI [12] was 6.73 µM.

COC[C@H]1C(=O)NCC(=O)N2NCCC[C@H]2C(=O)N(O)[C@H](C)C(=O)O[C@@H](C(C)C)[C@H](NC(=O)[C@](C)(O)[C@]2(O)CC[C@@H](CC(C)C)[C@H](C)O2)C(=O)N2NCCC[C@@H]2C(=O)N1O gave a GI50 [10] of 0.0168 µM, a TGI [10] of 0.0307 µM and a GI50 [13] of 0.0171 µM. For the same compound, the TGI [13] was 0.0377 µM, the GI50 [8] was 0.0152 µM and the TGI [8] was 0.0304 µM.

CCOc1ncn(-c2ccc(NC(=S)Nc3cccc(O)c3)cc2)n1 was tested, and the TGI [1] was greater than 100 µM, the TGI [2] was greater than 100 µM and the TGI [3] was greater than 100 µM. It also gave a TGI [4] greater than 100 µM, a TGI [13] greater than 100 µM and a TGI [7] greater than 100 µM. The TGI [11] was greater than 100 µM, the TGI [9] was greater than 100 µM and the TGI [12] was greater than 100 µM.
